This passage reports MIC results from DBAASP.

Usually MIC stands for the lowest concentration found to suppress growth. Lower therefore signals greater potency.

Some test systems named below: Campylobacter jejuni; Escherichia coli K-12; Escherichia coli; Fusarium oxysporum; Fusarium solani; Ramulariopsis gossypii; Rhizoctonia solani; Trichoderma asperellum; Candida krusei ATCC 6258.
Common to all, as to assay: ≥ marks a high value that may be exact or a test limit, other limits are often not marked, values filed in µg/mL are converted to µM
Test [1] deals with Acinetobacter baumannii Q12-0809.
For test [2], the system named is Acinetobacter baumannii Q13-0717.
Test [3] has as its system Campylobacter jejuni NCTC 11351.
Test [4] relates to Enterococcus faecalis JH-2-2.
Test [5] concerns Klebsiella pneumoniae ATCC 700603.
Test [6] concerns Klebsiella pneumoniae NCTC 13442.
Test [7] deals with Klebsiella pneumoniae Q14-0095.
In test [8] the test system is Klebsiella pneumoniae Q14-0285.
For test [9], the system named is Listeria monocytogenes NCTC 11994.
For test [10], the system named is Pseudomonas aeruginosa ATCC 27853.
Test [11] has as its system Pseudomonas aeruginosa PAO1.
In test [12] the test system is Pseudomonas aeruginosa Q12-0535.
Test [13] concerns Pseudomonas aeruginosa Q14-0208.
Test [14] has as its system Pseudomonas aeruginosa Q14-0890.
Test [15] concerns Salmonella typhimurium SL1344.
Test [16] concerns Staphylococcus aureus ATCC 29213.
Test [17] concerns Staphylococcus aureus MRSA-15.
For test [18], the system named is Staphylococcus aureus NCTC 12493.
Test [19] relates to Staphylococcus aureus Q14-0320.
The test system of test [20] is Staphylococcus aureus Q14-0325.
In test [21] the test system is Staphylococcus aureus RN4220.
The subject of test [22] is Bacillus cereus ATCC 14579.
Test [23] has as its system Bacillus subtilis ATCC 23857.
In test [24] the test system is Candida albicans ATCC 90028.
Test [25] deals with Cryptococcus neoformans ATCC 28957.
The subject of test [26] is Escherichia coli ATCC 25922.
The subject of test [27] is Fusarium oxysporum f.sp. vasinfectum.
Test [28] deals with Pectobacterium carotovorum.
The test system of test [29] is Pseudomonas syringae pv. tabaci.
Test [30] has as its system Staphylococcus aureus ATCC 25923.
For test [31], the system named is Xanthomonas campestris pv. citri.
Test [32] has as its system Candida glabrata ATCC 90030.
Test [33] relates to Enterobacter cloacae ATCC 13047.
In test [34] the test system is Enterococcus faecalis ATCC 4028.
The test system of test [35] is Staphylococcus epidermidis ATCC 12228.
For test [36], the system named is Listeria monocytogenes ATCC 19112.
The subject of test [37] is Pseudomonas aeruginosa ATCC 15442.
In test [38] the test system is Escherichia coli K-12 594.
Test [39] has as its system Staphylococcus aureus ATCC 6538P.
In test [40] the test system is Staphylococcus aureus SR1550.

In brackets after ≈: the same amount, converted by molar mass. Where only a bound is given, the exact number is not on record here.

As for `CC(C)C[C@H](NC(=O)[C@H](CO)NC(=O)[C@H](CO)NC(=O)[C@H](CO)NC(=O)[C@H](CCCN=C(N)N)NC(=O)[C@@H](NC(=O)[C@H](CCCN=C(N)N)NC(=O)[C@H](Cc1c[nH]c2ccccc12)NC(=O)[C@H](CS)NC(=O)[C@H](CC(N)=O)NC(=O)[C@H](CCCN=C(N)N)NC(=O)[C@H](Cc1ccccc1)NC(=O)[C@H](C)NC(=O)[C@H](CCCCN)NC(=O)[C@H](Cc1c[nH]c2ccccc12)NC(=O)[C@H](CCCN=C(N)N)NC(=O)[C@H](Cc1c[nH]c2ccccc12)NC(=O)[C@H](C)N)C(C)C)C(=O)O` [AWRWKAFRNCWRVRSSSL], the MIC is 13.9 µM (≈ 32 µg/mL) in test [1]; 27.7 µM (≈ 64 µg/mL) in test [2]; ≥ 55.4 µM in test [3]; ≥ 55.4 µM against Campylobacter jejuni; 27.7 µM (≈ 64 µg/mL) in test [4]; 27.7 µM (≈ 64 µg/mL) with Escherichia coli K-12. The MIC was > 55.4 µM in the test with Escherichia coli; 55.4 µM (≈ 128 µg/mL) in test [5]; ≥ 55.4 µM in test [6]; ≥ 55.4 µM in test [7]; ≥ 55.4 µM in test [8]; 27.7 µM (≈ 64 µg/mL) in [9]. In addition, the MIC is > 55.4 µM in test [10]; 13.9 µM (≈ 32 µg/mL) in test [11]; ≥ 55.4 µM in test [12]; 27.7 µM (≈ 64 µg/mL) in [13]; 13.9 µM (≈ 32 µg/mL) in [14]; 13.9 µM (≈ 32 µg/mL) in test [15]. The MIC in test [16] is 55.4 µM (≈ 128 µg/mL); in test [17], 27.7 µM (≈ 64 µg/mL); in [18] it was 13.9 µM (≈ 32 µg/mL); in test [19], ≥ 55.4 µM; in [20], ≥ 55.4 µM; in test [21], 27.7 µM (≈ 64 µg/mL).
Turning to `CC[C@H](C)[C@H](NC(=O)[C@H](Cc1cnc[nH]1)NC(=O)CNC(=O)[C@H](Cc1ccccc1)NC(=O)[C@@H](N)Cc1ccccc1)C(=O)N[C@@H](Cc1c[nH]c2ccccc12)C(=O)N[C@@H](Cc1cnc[nH]1)C(=O)NCC(=O)N[C@@H](C)C(=O)N[C@@H](CCCN=C(N)N)C(=O)N[C@H](C(=O)N[C@@H](CC(C)C)C(=O)N[C@@H](Cc1ccccc1)C(=O)N[C@@H](CCCN=C(N)N)C(=O)N[C@@H](CC(=O)O)C(=O)N[C@H](C(=O)N[C@@H](Cc1ccccc1)C(=O)N[C@@H](C)C(N)=O)C(C)C)[C@@H](C)O` [FFGHIWHGARTLFRDVFA], the MIC in [22] was ≥ 64 µM; in test [23], 3.33 µM (≈ 7.25 µg/mL); in [24] it was ≥ 32 µM; in test [25], ≥ 32 µM; in test [26] it was 8 µM (≈ 17.4 µg/mL); in [27] it was 13.3 µM (≈ 29 µg/mL). In addition, the MIC in the test on Fusarium oxysporum was 16 µM (≈ 34.8 µg/mL); against Fusarium solani, 8 µM (≈ 17.4 µg/mL); in [28], ≥ 32 µM; in [29] it was 4 µM (≈ 8.71 µg/mL); against Ramulariopsis gossypii, 16 µM (≈ 34.8 µg/mL); against Rhizoctonia solani, ≥ 32 µM. Further, the MIC is 8 µM (≈ 17.4 µg/mL) in test [30], 8 µM (≈ 17.4 µg/mL) against Trichoderma asperellum and ≥ 32 µM in [31].
In the case of `CC[C@H](C)[C@H](NC(=O)[C@H](CC(C)C)NC(=O)CNC(=O)[C@H](CCCCN)NC(=O)[C@@H](NC(=O)[C@H](CC(C)C)NC(=O)[C@H](CCCCN)NC(=O)[C@@H]1CCCN1C(=O)[C@@H](NC(=O)[C@H](CC(C)C)NC(=O)[C@H](CO)NC(=O)[C@H](Cc1ccccc1)NC(=O)[C@@H](N)Cc1ccccc1)[C@@H](C)CC)C(C)C)C(=O)N[C@@H](CO)C(=O)N[C@@H](C)C(=O)N[C@@H](Cc1ccccc1)C(=O)N[C@@H](CCCCN)C(N)=O` [FFSLIPKLVKGLISAFK], the MIC in test [24] was 9.38 µM (≈ 17.9 µg/mL); in [32], 18.8 µM (≈ 35.8 µg/mL); in the test on Candida krusei ATCC 6258 it was ≥ 37.5 µM; in test [33], 18.8 µM (≈ 35.8 µg/mL); in test [34], 1.17 µM (≈ 2.23 µg/mL); in test [26], 4.69 µM (≈ 8.95 µg/mL). The minimal inhibitory concentration (MIC) in test [10] was 9.38 µM (≈ 17.9 µg/mL); in test [16] it was 2.34 µM (≈ 4.46 µg/mL); in test [35], 1.17 µM (≈ 2.23 µg/mL).
With `CC[C@H](C)[C@H](NC(=O)[C@H](CO)NC(=O)[C@@H](N)CC(C)C)C(=O)N[C@@H](CCCN=C(N)N)C(=O)N[C@@H](CCCN=C(N)N)C(=O)N[C@@H](CC(C)C)C(=O)N[C@@H](CC(C)C)C(=O)N[C@@H](C)C(=O)N[C@@H](C)C(=O)NCC(=O)N[C@H](C(=O)N[C@@H](CC(C)C)C(=O)N[C@@H](CCCCN)C(=O)N[C@@H](CCC(N)=O)C(=O)N[C@H](C(=O)N[C@@H](CCCCN)C(=O)NCC(=O)N[C@H](C(=O)NCC(=O)N[C@@H](C)C(=O)O)C(C)C)[C@@H](C)O)C(C)C` [LSIRRLLAAGVLKQTKGVGA], the minimum inhibitory concentration (MIC) in test [36] was 31.2 µM (≈ 64 µg/mL); in test [37], 13 µM (≈ 26.7 µg/mL).
Consider `CC(C)C[C@H](NC(=O)[C@H](CCCN=C(N)N)NC(=O)[C@H](CC(C)C)NC(=O)[C@H](CC(C)C)NC(=O)[C@H](CC(C)C)NC(=O)[C@H](CC(C)C)NC(=O)[C@H](CCCCN)NC(=O)[C@H](CC(C)C)NC(=O)[C@@H](N)CCCN=C(N)N)C(=O)N[C@@H](CCCCN)C(N)=O` [RLKLLLLRLK], for which the results for the MIC in [38], in test [39] and in test [40] were 15.8 µM (≈ 20 µg/mL), 1.58 µM (≈ 2 µg/mL) and 27.7 µM (≈ 35 µg/mL), respectively.
